From paper PMC5112578, “Zika antiviral chemotherapy: identification of drugs and promising starting points for drug discovery from an FDA-approved library” (F1000Research, 2016)
Where a name gives a salt, the structure may show the parent alone. Read-outs that look alike come from different tables or passages of the source. Values belong to the compound of their own block, whether it stands above or below them. Numbered stars: 1 amine (or outer) side, 2 acyl side, 3 side chain; on linkers, the order of the positions; unused ones are H or OH. Bridge positions count the residues as written; N and C are the ends. Square brackets hold non-standard residues; d marks the D form. Peptide text beside a SMILES is read from it. I, II: the chains in the order shown. Actinocin(9to1) = Cc1c2oc3c(C)ccc(C(=O)[*:1])c3nc-2c(C(=O)[*:2])c(N)c1=O; NMeV = CN[C@H](C(=O)O)C(C)C; Sar = CNCC(=O)O

Tests used:
Zika virus (ZIKV) [1] = assay: ZIKV high content screening assay (infection ratio by immunofluorescence in Huh7); conditions: for SI: SI = CC50/EC50; for Max. Activity (% of infection inhibition) / S.I. (CC 50/EC 50): Table 2; for Max. Activity (% of infection inhibition): dose-response; for Max. Activity (% of infection inhibition) / activity: Huh7, ZIKV, 72 h; for activity: in our assay, library screened at 20 µM; for S.I. (CC 50/EC 50): SI = CC50/EC50, Huh7
Huh7 cells = assay: Cell toxicity / cell ratio in the ZIKV high content assay; conditions: for CC50: Table S2, 50% reduction in cell viability vs infected IFNα2A treated cells, 72 h; for toxicity: in our assay, library screened at 20 µM, Huh7, 72 h
[2] = in humans; no reference given; cited from earlier work
[3] = Table 2; no reference given; cited from earlier work
Zika virus (ZIKV) [4] = system: Zika virus (ZIKV)
[5] = Table S2, 9 point DRC from 50 µM, Huh7, ZIKV MOI 0.5, 72 h

Compound: N=C(NCc1ccc(Cl)cc1)SCCCc1c[nH]cn1 [SAM001247107]
EC50 (Zika virus (ZIKV) [1]; [5]): 14 µM | SI (Zika virus (ZIKV) [1]; Table S2): 1.38 | CC50 (Huh7 cells): 19.3 ± 9.7 µM

Compound: Clc1ccccc1C(c1ccccc1)(c1ccccc1)n1ccnc1 [SAM001247056]
EC50 (Zika virus (ZIKV) [1]; [5]): 14.3 ± 3.5 µM | SI (Zika virus (ZIKV) [1]; Table S2): 0.6 | CC50 (Huh7 cells): 8.7 ± 1.2 µM

Compound: Clc1ccc2c(c1)CCc1cccnc1C2=C1CCNCC1 [SAM001246545]
CC50 (Huh7 cells): 20.7 ± 4.1 µM

Compound: Cc1ccc(NC(=O)c2ccc(CN3CCN(C)CC3)cc2)cc1Nc1nccc(-c2cccnc2)n1 [SAM001246622]
EC50 (Zika virus (ZIKV) [1]; [5]): 13.3 ± 5.8 µM

EC50 (Zika virus (ZIKV) [1]; Zika virus, Huh-7, 72 h): 16.3 ± 7.7 µM
Compound: O=C1c2cccc3c2[C@H](CCC3)CN1[C@@H]1CN2CCC1CC2 [Palonosetron]
bioavailability [2]: 97% | Max. Activity (% of infection inhibition) (Zika virus (ZIKV) [1]): 97.7% | Water Solubility (mg/mL) [3]: Very high | S.I. (CC 50/EC 50) (Zika virus (ZIKV) [4]): > 3.06

Compound: COC(=O)Nc1nc2ccc(C(=O)c3ccccc3)cc2[nH]1 [Mebendazole]
toxicity (Huh7 cells): higher than 50%

Compound: Cn1cnc([N+](=O)[O-])c1Sc1ncnc2nc[nH]c12 [Azathioprine]
toxicity (Huh7 cells): higher than 50%

Compound: Clc1ccc2c(c1)C(N1CCNCC1)=Nc1ccccc1O2 [SAM002564189]
EC50 (Zika virus (ZIKV) [1]; [5]): 19.3 ± 5.5 µM | SI (Zika virus (ZIKV) [1]; Table S2): 0.6 | CC50 (Huh7 cells): 11.7 ± 11 µM

Compound: Oc1cc2c(cc1O)[C@H]1c3ccccc3CN[C@@H]1CC2 [SAM001247083]
EC50 (Zika virus (ZIKV) [1]; [5]): 21.5 ± 0.7 µM | CC50 (Huh7 cells): 16.5 µM

Compound: Cc1c2oc3c(C)ccc(C(=O)N[C@@H]4C(=O)N[C@H](C(C)C)C(=O)N5CCC[C@H]5C(=O)N(C)CC(=O)N(C)[C@@H](C(C)C)C(=O)O[C@@H]4C)c3nc-2c(C(=O)N[C@@H]2C(=O)N[C@H](C(C)C)C(=O)N3CCC[C@H]3C(=O)N(C)CC(=O)N(C)[C@@H](C(C)C)C(=O)O[C@@H]2C)c(N)c1=O [Dactinomycin] (I: T[dV]P[Sar][NMeV] / II: T[dV]P[Sar][NMeV]; ester I:1-I:C, II:1-II:C; linker I:N-II:N via Actinocin(9to1))
toxicity (Huh7 cells): higher than 50%

Compound: COc1c2occc2cc2ccc(=O)oc12 [Methoxsalen]
activity (Zika virus (ZIKV) [1]): lower than 50%

EC50 (Zika virus (ZIKV) [1]; Zika virus, Huh-7, 72 h): 2.3 ± 0.1 µM
Compound: O=c1cnn([C@@H]2O[C@H](CO)[C@@H](O)[C@H]2O)c(=O)[nH]1 [6-Azauridine]
Max. Activity (% of infection inhibition) (Zika virus (ZIKV) [1]): 88.3% | Water Solubility (mg/mL) [3]: Very high

Compound: CN1CCN(CCCN2c3ccccc3Sc3ccc(Cl)cc32)CC1.O=C(O)/C=C\C(=O)O.O=C(O)/C=C\C(=O)O [SAM001247054]
EC50 (Zika virus (ZIKV) [1]; [5]): 10.3 ± 3.1 µM | SI (Zika virus (ZIKV) [1]; Table S2): 0.87 | CC50 (Huh7 cells): 9 ± 4.4 µM

Compound: CN[C@H]1CC[C@@H](c2ccc(Cl)c(Cl)c2)c2ccccc21 [Sertraline-HCl]
activity (Zika virus (ZIKV) [1]): lower than 50%

Compound: S=c1[nH]cnc2nc[nH]c12 [Mercaptopurine]
activity (Zika virus (ZIKV) [1]): lower than 50%

Compound: CN1C2CCC1CC(OC(c1ccccc1)c1ccccc1)C2.CS(=O)(=O)O (centres unmarked) [SAM002548938]
EC50 (Zika virus (ZIKV) [1]; [5]): 21.3 ± 10 µM | SI (Zika virus (ZIKV) [1]; Table S2): 1.47 | CC50 (Huh7 cells): 31.3 ± 15.3 µM

EC50 (Zika virus (ZIKV) [1]; Zika virus, Huh-7, 72 h): 41.7 ± 10.1 µM
Compound: CO[C@@H]1[C@@H](O[C@@H]2O[C@H](C)[C@@H](O[C@H]3C[C@@](C)(O)[C@@H](OC(=O)CC(C)C)[C@H](C)O3)[C@H](N(C)C)[C@H]2O)[C@@H](CC=O)C[C@@H](C)[C@@H](O)/C=C/C=C/C[C@@H](C)OC(=O)C[C@H]1O [Kitasamycin]
S.I. (CC 50/EC 50) (Zika virus (ZIKV) [1]): > 1.2 | Max. Activity (% of infection inhibition) (Zika virus (ZIKV) [1]): 69.1% | Water Solubility [3]: 50 µg/mL

Compound: CC(C)/N=c1\cc2n(-c3ccc(Cl)cc3)c3ccccc3nc-2cc1Nc1ccc(Cl)cc1 [Clofazimine]
activity (Zika virus (ZIKV) [1]): lower than 50%

EC50 (Zika virus (ZIKV) [1]; Zika virus, Huh-7, 72 h): 14.3 ± 8.6 µM
Compound: O=c1[nH]cc(F)c(=O)[nH]1 [5-Fluorouracil]
Max. Activity (% of infection inhibition) (Zika virus (ZIKV) [1]): 57% | Water Solubility [3]: 12500 µg/mL | S.I. (CC 50/EC 50) (Zika virus (ZIKV) [4]): > 2.5

Compound: CC(CN1c2ccccc2Sc2ccccc21)N(C)C.Cl (centres unmarked) [SAM002264636]
EC50 (Zika virus (ZIKV) [1]; [5]): 19.7 ± 4.5 µM | SI (Zika virus (ZIKV) [1]; Table S2): 1.44 | CC50 (Huh7 cells): 28.3 ± 17.6 µM

Compound: OC(c1cc(C(F)(F)F)nc2c(C(F)(F)F)cccc12)C1CCCCN1 (centres unmarked) [Mefloquine]
toxicity (Huh7 cells): higher than 50%

EC50 (Zika virus (ZIKV) [1]; Zika virus, Huh-7, 72 h): 20.7 ± 8.6 µM
Compound: CC[C@H](C)C(=O)O[C@H]1C[C@@H](C)C=C2C=C[C@H](C)[C@H](CC[C@@H]3C[C@@H](O)CC(=O)O3)[C@H]21 [Lovastatin]
S.I. (CC 50/EC 50) (Zika virus (ZIKV) [1]): > 2.5 | Max. Activity (% of infection inhibition) (Zika virus (ZIKV) [1]): 60.7%

Compound: CC(C)c1ccc2c(c1)c(SC(C)(C)C)c(CC(C)(C)C(=O)O)n2Cc1ccc(Cl)cc1 [SAM001247075]
EC50 (Zika virus (ZIKV) [1]; [5]): 12 ± 1.7 µM | SI (Zika virus (ZIKV) [1]; Table S2): 2.8 | CC50 (Huh7 cells): 33.7 ± 10.8 µM

Compound: COCCCC/C(=N\OCCN)c1ccc(C(F)(F)F)cc1.O=C(O)/C=C\C(=O)O [SAM001246977]
EC50 (Zika virus (ZIKV) [1]; [5]): 17 ± 3.6 µM | SI (Zika virus (ZIKV) [1]; Table S2): 1.43 | CC50 (Huh7 cells): 24.3 ± 3.1 µM

Compound: C[C@H]1O[C@@H](O[C@H]2[C@@H](O)C[C@H](O[C@H]3[C@@H](O)C[C@H](O[C@H]4CC[C@@]5(C)[C@H](CC[C@@H]6[C@@H]5C[C@@H](O)[C@]5(C)[C@@H](C7=CC(=O)OC7)CC[C@]65O)C4)O[C@@H]3C)O[C@@H]2C)C[C@H](O)[C@@H]1O [Digoxin]
toxicity (Huh7 cells): higher than 50%
